Columns and labels:
[1] = molecular target: T1, OR2W1 (Homo sapiens, UniProt Q9Y3N9); assay: Luciferase reporter gene assay of OR2W1 expressing HEK293 cells; assay type: cell-based
T1 construct: expressed in transfected cells; host or cells: HEK293
T1 sequence (Q9Y3N9 1-320): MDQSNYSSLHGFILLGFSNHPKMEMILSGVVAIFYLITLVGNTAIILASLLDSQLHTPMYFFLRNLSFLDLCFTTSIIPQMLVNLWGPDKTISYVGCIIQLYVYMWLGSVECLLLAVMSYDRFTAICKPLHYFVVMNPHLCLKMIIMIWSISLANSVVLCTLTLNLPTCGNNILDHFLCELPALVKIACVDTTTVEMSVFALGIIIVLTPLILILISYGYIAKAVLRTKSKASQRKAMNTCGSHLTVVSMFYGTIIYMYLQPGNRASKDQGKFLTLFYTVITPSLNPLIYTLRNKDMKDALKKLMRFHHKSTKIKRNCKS
From the text: (§1) Based on the sequence information registered in GenEank, genes encoding 427 human olfactory receptors including variants were each cloned. Each gene was cloned by PCR using human genomic DNA female (G1521: Promega) as the template. Each gene amplified by PCR was recombined downstream of a Flag-Rho tag sequence on a pME18S vector.
(§2) A gene encoding human RTP1S was inserted into the EcoRI/XhoI site of a pME18S vector.
427 HEK293 cells differently expressing one of 427 human olfactory receptors were produced. Reaction solutions having compositions shown in Table 1 were prepared and were left to stand in a clean bench for 15 minutes. The reaction solutions were added to each well of a multi-well plate (384 or 96-well plate, BioCoat), and HEK293 cells were then seeded. In the 384-well plate, 4.4 μL of a reaction solution and 40 μL of HEK293 cells (20×10^4 cells/cm^2) were added. In the 96-well plate, 10 μL of a reaction solution and 90 μL of HEK293 cells (3×10^5 cells/cm^2) were added. The cells were cultured in an incubator maintained at 37° C. and 5% CO2 for 24 hours. As a control, cells not expressing an olfactory receptor (mock) were prepared.
The olfactory receptor expressed in HEK293 cells interact with endogenous cellular Gas to activate adenylate cyclase and thereby increases the intracellular cAMP level. The measurement of the response of cells to an odorant, test substance, or antagonist in the present invention was performed by a luciferase reporter gene assay monitoring the increase in the intracellular cAMP level as a light emission value derived from a firefly luciferase gene (fluc2P-CRE-hygro). A Renilla luciferase gene fused to downstream of a CMV promoter (hRluc-CMV) was simultaneously transfected and was used as an internal standard for calibrating the error in gene transfer efficiency or the number of cells. The luciferase activity was measured from 2.5 to 4 hours after stimulation with an odorant or a test substance with a Dual-Glo™ luciferase assay system (Promega), following user's manual thereof. The value fLuc/hRluc was calculated by dividing the light emission value derived from firefly luciferase by the light emission value derived from Renilla luciferase. “Fold increase” as an indicator of the responsiveness of an olfactory receptor to stimulation with a test substance, and “odor response” (%) as an indicator of the activity level of an antagonist to the olfactory receptor, were calculated according to the following formula: […]
X: fLuc/hRluc, induced by stimulation with a test substance alone, and
Y: fLuc/hRluc, without stimulation with a test substance.
L-Arginine and 1-histidine were used as test substances. […]

[2] = Sensory examination: PEA detection threshold value before and after nasal administration; assay type: in vivo; settings: 10 mM in saline, nasal spray, human examinees, one minute after spraying
Procedure: The action of 1-arginine, which is an OR2W1 selective ligand, on olfaction was evaluated by sensory examination. Three samples, saline (Otsuka Pharmaceutical Co., Ltd.), saline aqueous solution containing 10 mM 1-arginine, and saline aqueous solution containing 10 mM 1-histidine, were prepared and filled into nasal sprays (KT110-102, AS ONE Corporation). […] PEA aqueous solutions with 11 different concentrations from 0.001 to 100 WA were prepared as test solutions, and 3 mL of each of the solutions was respectively added to 20-mL glass vials (Maruemu Corporation).
The experiment was blinded to both an examiner and an examinee. The examiner set the spray spout in the nasal cavity of the examinee as deep as possible and sprayed once. The amount of liquid ejected thereby was about 100 to 200 μL. […] The concentration that gave a correct answer three consecutive times after answering an incorrect answer was determined as the detection threshold value. […] Before and after the nasal administration of a sample, detection threshold values of an examinee to PEA were measured. The rate of change in the threshold value was determined by calculating (threshold value concentration before sample nasal administration)/(threshold value concentration after sample nasal administration).

[3] = test system: 427 human olfactory receptors; assay: Luciferase reporter gene assay of 427 human olfactory receptors expressed in HEK293 cells; assay type: cell-based; settings: test substance 10 mM
From the text: as §1, §2
427 HEK293 cells differently expressing one of 427 human olfactory receptors were produced. Reaction solutions having compositions shown in Table 1 were prepared and were left to stand in a clean bench for 15 minutes. The reaction solutions were added to each well of a multi-well plate (384 or 96-well plate, BioCoat), and HEK293 cells were then seeded. […]
The olfactory receptor expressed in HEK293 cells interact with endogenous cellular Gas to activate adenylate cyclase and thereby increases the intracellular cAMP level. […] The luciferase activity was measured from 2.5 to 4 hours after stimulation with an odorant or a test substance with a Dual-Glo™ luciferase assay system (Promega), following user's manual thereof. The value fLuc/hRluc was calculated by dividing the light emission value derived from firefly luciferase by the light emission value derived from Renilla luciferase. […]

[4] = Sensory examination: odor intensity (labeled magnitude scale) on simultaneous exposure to odorant and test substance; assay type: in vivo, human; settings: test substance 10 mM in saline, ultrasonic nebulizer, LMS; for odor intensity of HCA used together with test substance: HCA 0.1 mM; for odor intensity of PEA used together with test substance: PEA 0.1 mM
Procedure: Whether the odor of an odorant was enhanced or not by simultaneous exposure to the odorant and 1-arginine was investigated by comparing with exposure to the odorant alone. PEA or hexyl cinnamic aldehyde (HCA) was used as the odorant. The odorant was added at a final concentration of 0.1 mM to a saline aqueous solution with 1-arginine (10 mM) and a saline aqueous solution with 1-histidine (10 mM) as a control. The resulting solutions were sprayed to an examinee for inhaling using an ultrasonic nebulizer (NE-U07: OMRON Corporation, atomization particle diameter: 1 to 8 μm (80% of total volume particle diameter distribution)) with a spray amount of about 170 μL (for about 20 seconds) at most, and odor intensity was evaluated.
The odor intensity was evaluated according to the method of Green, et al, (Chemical senses, 1996, 21: 323-34) with the labeled magnitude scale (LMS) shown below. That is, assuming the full scale length was 100%, labels were set to the following positions: Barely detectable: 1.4%, Weak: 6.1%, Moderate: 17.2%, Strong: 35.4%, Very strong: 53.3%, Strongest imaginable: 100%.

| Structure (SMILES) | response of OR2W1 expressing cells [1] | PEA detection threshold value after nasal administration [2] | responses of 427 olfactory receptors [3] | odor intensity of HCA used together with test substance [4] | odor intensity of PEA used together with test substance [4] |
| --- | --- | --- | --- | --- | --- |
| N[C@@H](Cc1c[nH]cn1)C(=O)O [1-histidine, L-Histidine] | did not respond | not observed | did not respond | the effect of enhancing the odor intensity was not observed | the effect of enhancing the odor intensity was not observed |
| CCCCCCC(C=O)=Cc1ccccc1 [HCA, 2-(phenylmethylidene)octanal] | did not respond | – | – | – | – |
| OCCc1ccccc1 [PEA, 2-phenylethanol] | responded | – | – | – | – |
| N=C(N)NCCC[C@H](N)C(=O)O [1-arginine, L-Arginine] | responded to 1-arginine concentration dependently | decreased in statistically significant manner | no olfactory receptors other than OR2W1 responded | enhanced in statistically siggificant manner | enhanced in statistically siggificant manner |

Source: patent publication US20190367963A1, “METHOD FOR SELECTING ODOR CONTROL SUBSTANCE” (KAO CORPORATION, priority 2017, published 2019)
